Measurements taken from patent publication US20220296584A1, “Membrane Active Molecules” (priority 2017, published 2022).

Test system: Tadpoles
Assay: Tadpole movement suppression (anesthetic efficacy)
Type: in vivo
Method: Tadpoles were placed in a petri dish containing aquarium water. Four to eight tadpoles were placed in each petri dish. The aquarium water contained the specified test compound at the listed concentration. When the tadpoles stopped moving, a plastic rod was used to elicit motion once again by contact between the rod and tadpole. […] From this and the number of subjects, the percent of tadpoles in which movement was suppressed were calculated.
After 1 to 30 minutes, they were again contacted with a rod to ensure the anesthetic effect had worn off
In some examples, subanesthetic concentrations of ethanol were added into the aquarium water. Tadpoles in which movement was prevented with exposure to a test compound and ethanol but not with exposure to a test compound alone were classified as partial anesthetics.

[1] = Concentration (mM): 125 + 150 EtOH
[2] = Concentration (mM): 50 + 150 EtOH
[3] = Concentration (mM): 20 + 150 EtOH
[4] = Concentration (mM): 25 + 150 EtOH
[5] = Concentration (mM): 100 + 150 EtOH
[6] = Concentration (mM): 12.5 + 150 EtOH

With `CCC(O)C(=O)O` (centres unmarked) [2-Hydroxybutyric acid, 2-hydroxybutyric acid] the “Movement suppressed (%)” value (Concentration (mM): 125) was 0% and the “Movement suppressed (%)” value [1] was 86%.
For `O=C(O)CCC(=O)C(=O)O` [2-Oxoglutaric acid], the “Movement suppressed (%)” value (Concentration (mM): 200 + 150 EtOH) was 86% and the “Movement suppressed (%)” value (Concentration (mM): 250 + 150 EtOH) was 100%.
`CC(C)(C)CC(=O)O` [3,3-Dimethylbutyric acid, 3,3-Dimethylbutanoic acid] was tested, and the “Movement suppressed (%)” value (Concentration (mM): 25) was 100%.
For `CC(C)(O)CC(=O)O` [3-Hydroxy-3-methylbutyric acid, 3-Hydroxy-3-methylbutanoic acid], the “Movement suppressed (%)” value (Concentration (mM): 1.6) was 0%, the “Movement suppressed (%)” value (Concentration (mM): 6.25) was 0% and the “Movement suppressed (%)” value (Concentration (mM): 25) was 0%. For the same compound, the “Movement suppressed (%)” value [2] was 100% and the “Movement suppressed (%)” value (Concentration (mM): 100) was 100%.
For `CCC(C)C(=O)C(=O)O` (centres unmarked) [3-Methyl-2-oxovaleric acid, 3-Methyl-2-oxopentanoic acid], the “Movement suppressed (%)” value (Concentration (mM): 250) was 33%.
In the case of `Cc1cccc(C(=O)NCC(=O)O)c1` [3-Methylhippuric acid, (3-Methylbenzoyl)glycine], the “Movement suppressed (%)” value (Concentration (mM): 3.125) was 0% and the “Movement suppressed (%)” value (Concentration (mM): 3.125 + 150 EtOH) was 100%.
For `CCC(C)CC(=O)O` (centres unmarked) [3-Methylvaleric acid, 3-Methylpentanoic acid], the “Movement suppressed (%)” value (Concentration (mM): 20) was 25% and the “Movement suppressed (%)” value [3] was 66%.
In the case of `CC(=O)CCCC(=O)O` [4-Acetylbutyric acid, 5-Oxohexanoic acid], the “Movement suppressed (%)” value (Concentration (mM): 25) was 0% and the “Movement suppressed (%)” value [4] was 80%.
`Cc1ccc(C(=O)NCC(=O)O)cc1` [4-Methylhippuric acid, (4-Methylbenzoyl)glycine] was tested, and the “Movement suppressed (%)” value [4] was 33%, the “Movement suppressed (%)” value (Concentration (mM): 50) was 0% and the “Movement suppressed (%)” value [2] was 100%. For the same compound, the “Movement suppressed (%)” value (Concentration (mM): 150 EtOH (no test compound concentration printed)) was 0%.
In the case of `CC(C)CCC(=O)O` [4-Methylvaleric acid], the “Movement suppressed (%)” value (Concentration (mM): 20) was 0% and the “Movement suppressed (%)” value [3] was 100%.
In the case of `O=C(O)CCCCC(=O)O` [Adipic acid, Hexanedioic acid], the “Movement suppressed (%)” value (Concentration (mM): 50) was 0% and the “Movement suppressed (%)” value [2] was 83%.
`C[C@H](N)C(=O)O` [Alanine] was tested, and the “Movement suppressed (%)” value (Concentration (mM): 62.5 + 150 EtOH) was 20% and the “Movement suppressed (%)” value [1] was 80%.
In the case of `O=C(NC(O)C(=O)O)c1ccccc1` (stereo not drawn) [Alpha-Hydroxyhippuric acid, 2-Benzamido-2-hydroxyacetic acid], the “Movement suppressed (%)” value (Concentration (mM): 5) was 33%, the “Movement suppressed (%)” value (Concentration (mM): 5 + 20 EtOH) was 66% and the “Movement suppressed (%)” value (Concentration (mM): 10) was 100%.
`N=C(N)NCCC[C@H](N)C(=O)O` [Arginine] was tested, and the “Movement suppressed (%)” value (Concentration (mM): 46.5) was 0% and the “Movement suppressed (%)” value (Concentration (mM): 192 + 150 EtOH) was 83%.
For `C[N+](C)(C)CCO` [Choline], the “Movement suppressed (%)” value (Concentration (mM): 46 + 150 EtOH) was 0%, the “Movement suppressed (%)” value [5] was 40% and the “Movement suppressed (%)” value (Concentration (mM): 120 + 150 EtOH) was 66%.
`CC(C)(C(=O)O)C(=O)O` [Dimethylmalonic acid] was tested, and the “Movement suppressed (%)” value (Concentration (mM): 125) was 60% and the “Movement suppressed (%)” value (Concentration (mM): 250) was 60%.
`CCO` [Ethanol control, ethanol, reference compound] was tested, and the “Movement suppressed (%)” value (Concentration (mM): 100) was 0%, the “Movement suppressed (%)” value (Concentration (mM): 150) was 0% and the “Movement suppressed (%)” value (Concentration (mM): 200) was 0%. The “Movement suppressed (%)” value (Concentration (mM): 250) was 33%.
With `N[C@@H](CCC(=O)O)C(=O)O` [Glutamate, Glutamic acid] the “Movement suppressed (%)” value [2] was 100%.
`NC(=O)CC[C@H](N)C(=O)O` [Glutamine] was tested, and the “Movement suppressed (%)” value (Concentration (mM): 25) was 0%, the “Movement suppressed (%)” value (Concentration (mM): 50) was 100% and the “Movement suppressed (%)” value (Concentration (mM): 100) was 100%.
In the case of `O=C(O)CCCC(=O)O` [Glutaric acid], the “Movement suppressed (%)” value (Concentration (mM): 7.8) was 0%, the “Movement suppressed (%)” value (Concentration (mM): 31) was 0% and the “Movement suppressed (%)” value (Concentration (mM): 125) was 0%. The “Movement suppressed (%)” value [1] was 60%.
In the case of `O=C(O)Cc1c[nH]c2ccccc12` [Indole-3-acetic acid, 2-(1H-indol-3-yl)acetic acid], the “Movement suppressed (%)” value (Concentration (mM): 12.5) was 0% and the “Movement suppressed (%)” value [6] was 100%.
`CC[C@H](C)[C@H](N)C(=O)O` [Isoleucine] was tested, and the “Movement suppressed (%)” value (Concentration (mM): 25) was 0% and the “Movement suppressed (%)” value [5] was 60%.
In the case of `CC(C)C(C(=O)O)C(=O)O` [Isopropyl malonic acid, 2-isopropylmalonic acid], the “Movement suppressed (%)” value (Concentration (mM): 1.6) was 0%, the “Movement suppressed (%)” value (Concentration (mM): 6.25) was 0% and the “Movement suppressed (%)” value (Concentration (mM): 25) was 50%. The “Movement suppressed (%)” value [4] was 40%.
For `O=C(O)c1cc(O)c2ccccc2n1` [Kynurenic acid, 4-hydroxyquinoline-2-carboxylic acid], the “Movement suppressed (%)” value (Concentration (mM): 12.5) was 0% and the “Movement suppressed (%)” value [6] was 100%.
